Test results published in patent publication US8124582B2, “Treatment of diabetes” (FibroGen, Inc., priority 2002, dated 2012).

Legend:
aldolase = assay: Aldolase protein expression in 293A cells (Western blot); type: cell-based, Human; conditions: FIG. 1A
Description: The effect of compounds of the present invention on expression of proteins and genes involved in glucose regulation and metabolism as follows. Human 293A cells (adenovirus-transformed fetal kidney epithelium) were plated confluent in 35 mm culture dishes and cultured for 1 day at 37° C., 10% CO2 in DMEM containing 5% FBS and 1% penicillin-streptomycin. The media was changed to Opti-Mem I and incubation was continued for an additional 18 to 24 hours. Vehicle control or compound B was then added to the media and cells were incubated for an additional 24, 48 or 72 hours. Plates were placed on ice, culture supernatant was removed, and lysis buffer-1 (LB-1: 10 mM Tris pH 7.4, 1 mM EDTA, 150 mM sodium chloride, 0.5% IGEPAL) was added. Cell lysates were harvested by scraping, incubated for 15 minutes on ice, and then fractionated by centrifugation at 3000×g for 5 minutes at 4° C. The supernatant, which represented the cytosolic fraction, was collected and cytosolic proteins were separated under reducing conditions using SDS-polyacrylamide gel electrophoresis (SDS-PAGE) with equal amounts of protein loaded per lane.
SDS-PAGE was conducted at 150 V for 2 hours, after which the proteins were transferred to a PVDF membrane at 400 mA for 1.5 hours at 4° C. […]

IGFBP-1 = assay: In vivo IGFBP-1 gene expression in kidney and liver (microarray); design: species or system Swiss Webster male mice; conditions: mice, oral gavage; time course; quantitatively different level between tissues; FIG. 3B
Description: To determine gene induction patterns over time, twenty four Swiss Webster male mice (30-32 g) were obtained from Simonsen, Inc. and treated by oral gavage with a 4 ml/kg volume of either 0.5% carboxymethyl cellulose (CMC; Sigma-Aldrich, St. Louis Mo.) (0 mg/kg/day) or […] compound B (25 mg/ml in 0.5% CMC) (100 mg/kg). At 4, 8, 16, 24, 48, or 72 hours after the final dose, animals were anesthetized with isoflurane. The mice were then sacrificed and tissue samples of kidney, liver, brain, lung, and heart were isolated and stored in RNALATER solution (Ambion) at −80° C.
RNA from tissues obtained from the experiments described above was isolated using the following protocol. A 50 mg section of each organ was diced, 875 μl of RLT buffer (RNEASY kit; Qiagen Inc., Valencia Calif.) was added, and the pieces were homogenized for about 20 seconds using a rotor-stator POLYTRON homogenizer (Kinematica, Inc., Cincinnati Ohio). […] The RNA was eluted into 80 μL of water and quantitated with RIBOGREEN reagent (Molecular Probes, Eugene Oreg.). […] The absorbance at 260 and 280 nm was measured to determine RNA purity and concentration.
Alternatively, tissue samples were diced and homogenized in TRIZOL reagent (Invitrogen Life Technologies, Carlsbad Calif.) using a rotor-stator POLYTRON homogenizer (Kinematica). […] The absorbance at 260 and 280 nm was measured to determine RNA purity and concentration. […]

O=C(O)CNC(=O)c1nc(Cl)c2ccccc2c1O [compound B, [(1-Chloro4-hydroxy-isoquinoline-3-carbonyl)-amino]-acetic acid]
aldolase expression (aldolase; 293A cells treated for 24, 48, and 72 hours, vs vehicle control): increased over time | β-tubulin expression (aldolase; 293A cells, specificity control): no increases | IGFBP-1 expression in kidney and liver (IGFBP-1): almost identical temporal induction
